Laboratory results reported in patent US20150265621A1, “Treating Bronchiectasis With Doxofylline and Erdosteine” (Alitair Pharmaceuticals, Inc., priority 2014, published 2015).
Read-outs that look alike come from different tables or passages of the source.

Key:
[1] = tested on: bronchiectasis patients with mucus hypersecretion; experiment: Summary (mean, weighted mean) of the three erdosteine bronchiectasis studies; format: in vivo, human; details: erdosteine 300 mg BID + PCT
Method: There are three published studies showing effectiveness of erdosteine in the treatment of bronchiectasis: Crisafulli et al (2007), Buquan and Xinke (2011) and Yipin (2012). The three studies have a total of 170 subjects, 85 of whom received standard care consisting of Percussive Chest Therapy (PCT) for up to 15 days. The remaining 85 received PCT plus treatment with erdosteine 300 mg BID for the same length of time. […] FEV1, FVC, PEF, MIP, MEP, PaO2 and PaCO2 measured according to test methods described by Mason et al, 2005. FEV1=forced expiratory volume in one second, measured in liters. FVC=forced vital capacity, total amount air the patient can expel in one breath, measured in liters. PEF=peak expiratory flow, measure in liters per second. MIP=maximum inhalation pressure. MEP=Maximum expiratory pressure. PaO2=partial pressure of oxygen. PaCO2=partial pressure of carbon dioxide. […] Again, the results are similar in terms of order of magnitude and consistent in showing an incremental benefit to adding erdosteine to PCT in bronchiectasis patients. […] The use of erdosteine with PCT produces significant and clinically meaningful changes in the respiratory functioning of patients with bronchiectasis and mucus hypersecretion as compared to PCT alone.

[2] = tested on: bronchiectasis patients with mucus hypersecretion; details: Yipin; erdosteine 300 mg BID + PCT up to 15 days; 40 subjects; cited from earlier work
[3] = tested on: bronchiectasis patients with mucus hypersecretion; details: Buquan; erdosteine 300 mg BID + PCT up to 15 days; 30 subjects; cited from earlier work
[4] = tested on: bronchiectasis patients with mucus hypersecretion; details: Crisafulli; erdosteine 300 mg BID + PCT up to 15 days; 15 subjects; cited from earlier work
[5] = tested on: bronchiectasis patients with mucus hypersecretion; details: cited from earlier work
chronic asthma subjects = details: randomized clinical study; cited from earlier work
CF patients = details: intravenous; cited from earlier work
[6] = tested on: patients with theophylline overdose; details: cited from earlier work
[7] = tested on: adults with CT scan confirmed bronchiectasis; details: nebulized, vs placebo, cited from earlier work
[8] = weighted by % total subjects (18%, 47%, 35%)

**Q.** For `O=C(O)CSCC(=O)NC1CCSC1=O` (stereo not shown) [Erdo, erdosteine], which “FEV1 change vs baseline, Mean” value ([1]; mean of the three studies) is on record?
**A.** 0.2 L

**Q.** What about the “FVC change vs baseline, Mean” value ([1]; mean of the three studies) of the same compound?
**A.** 0.3 L

**Q.** And the “MEP change vs baseline, Mean” value ([1]; mean of the three studies)?
**A.** 9.3 Kpa

**Q.** And the “MIP change vs baseline, Mean” value ([1]; mean of the three studies)?
**A.** 9 kPa

**Q.** What about the “PEF change vs baseline, Mean” value ([1]; mean of the three studies) of the same compound?
**A.** 0.3 L/s

**Q.** And the “PaCO2 change vs baseline, Mean” value ([1]; mean of the three studies)?
**A.** 1.3 mm Hg

**Q.** And the “PaO2 change vs baseline, Mean” value ([1]; mean of the three studies)?
**A.** 5.5 mm Hg

**Q.** What about the “FEV1 change vs baseline, Wtd Mean Diff” value [1, 8] of the same compound?
**A.** 0.26 L

**Q.** And the “FVC change vs baseline, Wtd Mean Diff” value [1, 8]?
**A.** 0.36 L

**Q.** What about the “MEP change vs baseline, Wtd Mean Diff” value [1, 8] of the same compound?
**A.** 9.69 Kpa

**Q.** What about the “MIP change vs baseline, Wtd Mean Diff” value [1, 8] of the same compound?
**A.** 9.09 kPa

**Q.** And the “PEF change vs baseline, Wtd Mean Diff” value [1, 8]?
**A.** 0.35 L/s

**Q.** What about the “PaCO2 change vs baseline, Wtd Mean Diff” value [1, 8] of the same compound?
**A.** 1.35 mm Hg

**Q.** What about the “PaO2 change vs baseline, Wtd Mean Diff” value [1, 8] of the same compound?
**A.** 5.70 mm Hg

**Q.** And the “FEV1 change vs baseline” value [2]?
**A.** 0.34 L

**Q.** And the “FVC change vs baseline” value [2]?
**A.** 0.43 L

**Q.** And the “MEP change vs baseline” value [2]?
**A.** 11.3 Kpa

**Q.** And the “MIP change vs baseline” value [2]?
**A.** 9.9 kPa

**Q.** What about the “PEF change vs baseline” value [2] of the same compound?
**A.** 0.4 L/s

**Q.** And the “PaCO2 change vs baseline” value [2]?
**A.** 2.6 mm Hg

**Q.** And the “PaO2 change vs baseline” value [2]?
**A.** 6.3 mm Hg

**Q.** What about the “FEV1 change vs baseline” value [3] of the same compound?
**A.** 0.19 L

**Q.** And the “FVC change vs baseline” value [3]?
**A.** 0.31 L

**Q.** And the “MEP change vs baseline” value [3]?
**A.** 8.2 Kpa

**Q.** And the “MIP change vs baseline” value [3]?
**A.** 8.1 kPa

**Q.** And the “PEF change vs baseline” value [3]?
**A.** 0.3 L/s

**Q.** What about the “PaCO2 change vs baseline” value [3] of the same compound?
**A.** 0.3 mm Hg

**Q.** And the “PaO2 change vs baseline” value [3]?
**A.** 5.2 mm Hg

**Q.** And the “FEV1 change vs baseline” value [4]?
**A.** 0.2 L

**Q.** And the “FVC change vs baseline” value [4]?
**A.** 0.3 L

**Q.** What about the “MEP change vs baseline” value [4] of the same compound?
**A.** 8.4 Kpa

**Q.** And the “MIP change vs baseline” value [4]?
**A.** 8.9 kPa

**Q.** What about the “PEF change vs baseline” value [4] of the same compound?
**A.** 0.3 L/s

**Q.** And the “PaCO2 change vs baseline” value [4]?
**A.** 0.1 mm Hg

**Q.** And the “PaO2 change vs baseline” value [4]?
**A.** 5.1 mm Hg

**Q.** What about the “effect of erdosteine with PCT compared to PCT alone on respiratory functioning” value [5] of the same compound?
**A.** significantly enhances the effect of PCT alone

**Q.** With `Cn1c(=O)c2c(ncn2CC2OCCO2)n(C)c1=O` [doxofylline] as the compound, how does the “effectiveness in treating chronic asthma compared to theophylline” value (chronic asthma subjects) read?
**A.** as effective as theophylline

**Q.** And the “subjects dropped out of the study due to side effects” value (chronic asthma subjects)?
**A.** 11%

**Q.** What does the source list for `Cn1c(=O)c2[nH]cnc2n(C)c1=O` [theophylline]?
**A.** subjects dropped out of the study due to side effects (chronic asthma subjects): 31%; effect on FEV1 and FEF 0.75 (CF patients): positive results; patients treated in an emergency setting for overdose who die [6]: Ten

**Q.** Which results are given for `NC[C@H]1O[C@H](O[C@H]2[C@H](O)[C@@H](O[C@H]3O[C@H](CO)[C@@H](O)[C@H](N)[C@H]3O)[C@H](N)C[C@@H]2N)[C@H](N)C[C@@H]1O` [tobramycin]?
**A.** effect on FEV1 ([7]; after four weeks of treatment): no effect; eradication of P. aeruginosa ([7]; four weeks of treatment): significant effect
